{"source": "paper PMC8484505", "about": "(Cell Reports Medicine, 2021)", "key": {"[1]": {"assay": "Population PK analysis of oral semaglutide in PIONEER 1, 2, 3, 5, 8 and 9", "type": "in vivo, human"}, "[2]": {"settings": "stated in discussion, no reference given; cited from earlier work"}, "[3]": {"settings": "SUSTAIN-6, T2D population with high CV risk; cited from earlier work"}}}
{"molecule": "CC[C@H](C)[C@H](NC(=O)[C@H](Cc1ccccc1)NC(=O)[C@H](CCC(=O)O)NC(=O)[C@H](CCCCNC(=O)COCCOCCNC(=O)COCCOCCNC(=O)CC[C@H](NC(=O)CCCCCCCCCCCCCCCCC(=O)O)C(=O)O)NC(=O)[C@H](C)NC(=O)[C@H](C)NC(=O)[C@H](CCC(N)=O)NC(=O)CNC(=O)[C@H](CCC(=O)O)NC(=O)[C@H](CC(C)C)NC(=O)[C@H](Cc1ccc(O)cc1)NC(=O)[C@H](CO)NC(=O)[C@H](CO)NC(=O)[C@@H](NC(=O)[C@H](CC(=O)O)NC(=O)[C@H](CO)NC(=O)[C@@H](NC(=O)[C@H](Cc1ccccc1)NC(=O)[C@@H](NC(=O)CNC(=O)[C@H](CCC(=O)O)NC(=O)C(C)(C)NC(=O)[C@@H](N)Cc1cnc[nH]1)[C@@H](C)O)[C@@H](C)O)C(C)C)C(=O)N[C@@H](C)C(=O)N[C@@H](Cc1c[nH]c2ccccc12)C(=O)N[C@@H](CC(C)C)C(=O)N[C@H](C(=O)N[C@@H](CCCNC(=N)N)C(=O)NCC(=O)N[C@@H](CCCNC(=N)N)C(=O)NCC(=O)O)C(C)C", "note": "[oral semaglutide, semaglutide]", "values": [{"measurement": "lower exposure compared to subjects not reporting GI disease", "setting": "[1]; 34 patients with gastric ulcer, non-significant", "result": 11, "unit": "%"}, {"measurement": "exposure compared to subjects not reporting GI disease", "setting": "[1]; 174 subjects with chronic gastritis", "result": "No effect differences"}, {"measurement": "fraction of subjects with exposure levels considered below the therapeutic range", "setting": "[1]; oral semaglutide 14 mg", "result": 3, "unit": "%"}]}
{"molecule": "semaglutide", "values": [{"measurement": "half-life", "setting": "[2]", "result": "~1", "unit": "week"}]}
{"molecule": "semaglutide [s.c. semaglutide]", "values": [{"measurement": "reduction in the hazard ratio of major adverse cardiovascular events (MACE)", "setting": "[3]", "result": 26, "unit": "%"}]}
